Data as given in patent US9113631B2, “1,3-diaryl-substituted heterocyclic pesticides” (E I DU PONT DE NEMOURS AND COMPANY, priority 2011, dated 2015).

Tested on: potato leafhopper (Empoasca fabae)
Test: Test F: control of potato leafhopper on Soleil bean plant, contact and/or systemic
Format: in vivo
Conditions: 144 h, sprayed at 250 ppm, adults on Soleil bean plant, 6 days, 24° C., read-out: control efficacy, very good to excellent: mortality
Protocol: Test compounds were formulated using a solution containing 10% acetone, 90% water and 300 ppm X-77® Spreader Lo-Foam Formula non-ionic surfactant containing alkylarylpolyoxyethylene, free fatty acids, glycols and isopropanol (Loveland Industries, Inc. Greeley, Colo., USA). The formulated compounds were applied in 1 mL of liquid through a SUJ2 atomizer nozzle with 1/8 JJ custom body (Spraying Systems Co., Wheaton, Ill., USA) positioned 1.27 cm (0.5 inches) above the top of each test unit. Test compounds were sprayed at 250 ppm and/or 50 ppm, and replicated three times. After spraying of the formulated test compound, each test unit was allowed to dry for 1 h and then a black, screened cap was placed on top. The test units were held for 6 days in a growth chamber at 25° C. and 70% relative humidity. Plant feeding damage was then visually assessed based on foliage consumed. […]
Test compounds were formulated and sprayed at 250 ppm and/or 50 ppm, and the tests were replicated three times as described for Test A. After spraying, the test units were allowed to dry for 1 h before they were post-infested with 5 potato leafhoppers (18-21-day-old adults). […] Each test unit was then visually assessed for insect mortality.

`N#CC1CCN(Cc2cn(-c3cccc(C(F)(F)F)c3)nc2-c2ccc(F)cc2)CC1` [Compound 12, 1-[[3-(4-fluorophenyl)-1-[3-(trifluoromethyl)phenyl]-1H-pyrazol-4-yl]methyl]-4-piperidinecarbonitrile] gave a mortality at 250 ppm of no less than 80%.
